“Also recorded” adds a separate entry of the source.
Legend:
[1] = system: endothelial cells; test: I125-VEGF binding to endothelial cells in presence of peptide; format: cell-based; conditions: for VEGF binding to cells (endothelial cells) with #237 fragments: 100 μg/ml of each peptide
Protocol: (§1) 10000 cells were incubated in binding buffer containing 20 mM Hepes, 0.1% BSA and I125-VEGF (12 ng/ml) for 3 h on ice.
(§2) In order to characterize the effect of the peptides on VEGF binding to endothelial and melanoma cells, the cells were incubated with various peptides (720 μg/ml) in the presence of […] (12 ng/ml) (FIG. 3). Peptide #237 increased VEGF binding to endothelial as well to melanoma cells. 10000 cells were incubated in binding buffer containing 20 mM Hepes, 0.1% BSA and I^125-VEGF (12 ng/ml) for 3 h on ice. Following 3 washings, the radioactive levels were determined by gamma counter. An increase of more than 25 times in I^125-VEGF binding was observed when peptide #237 was added to both kinds of cells. All other peptides had no effect on VEGF binding.
(§3) To characterize which are the essential amino acids within the #237 peptide that are crucial to accelerate VEGF binding to the cells, three shorter peptides were designed as presented at Table 2. The cells were treated with the smaller peptides in the same way as described in FIG. 3. 10000 cells were incubated in binding buffer containing 20 mM Hepes, 0.1% BSA, I^125-VEGF (12 ng/ml) and 100 μg/ml of each peptide, for 3 h on ice. Following 3 washings with binding buffer, the radioactive levels were determined using a gamma counter.
The inventors also investigated which amino acid residues in peptide #237 are important for the various angiogenic and VEGF related binding activity described herein. To achieve this, the inventors singly changed each of the 12 amino acid residues in peptide #237 to alanine and performed experiments examining the effect of the alanine substitution at various positions on endothelial cell binding to VEGF. A total of 12 alanine substituted peptides were made and tested: Ala-1, Ala-2, Ala-3, Ala-4, Ala-5, Ala-6, Ala-7, Ala-8, Ala-9, Ala-10, Ala-11, Ala-12, (SEQ. ID. NOS. 39-50) wherein the number indicate the position where the alanine substitution occurred. (Note that the amino acid at position 12 of peptide #237 was changed to glycine in Ala-12). In addition, a “flip #237” peptide having the sequence AAVVTTTQRQVRD (SEQ. ID. NO. 53) was also made and studied.

[2] = system: B16-F10 melanoma cells; test: I125-VEGF binding to melanoma cells in presence of peptide; format: cell-based; conditions: I125-VEGF 12 ng/ml, 3 h on ice
Protocol: as §1, §2, §3

[3] = system: endothelial cells; test: Matrigel assay, endothelial cell migration in vivo (FACS); design: species or system C57bl mice; conditions: for endothelial cells among matrigel liberated cells (FACS, CD31): Matrigel s.c. with 500 ng VEGF, with or without 180 μg #237, day 6
Protocol: On day 6, animals were sacrificed and fluorescence-activated cell sorting (FACS) analysis was used for determination of the matrigel liberated cells. In order to distinguish the endothelial cells from hematopoietic cells, the cells were incubated with two antibodies CD31-PE and CD45-APC which are specific to endothelial cells and hematopoietic cells respectively.

[4] = system: mouse ear wound; test: Mouse ear punch wound healing model, 14 days; format: in vivo; conditions: MATRIGEL containing #237 daily, day 14, vs MATRIGEL
Protocol: In addition to increasing angiogenesis, peptide #237 also accelerates wound healing. In order to evaluate the effect of the peptide on wound healing, ears of five mice were wounded using a circular punch, which creates a wound measuring 1 mm. The ears of wounded mice were treated daily with either MATRIGEL or MATRIGEL containing #237 peptide for 14 days.

[5] = system: ischemic hind limb; test: Mouse hind limb ischemia model (femoral artery ligation, laser Doppler); format: in vivo
Protocol: Mice were ligated in one of their femoral arteries (the right limb) to simulate hind limb ischemia. The blood flow in mice was analyzed by machine for each mouse before and immediately after the procedure to evaluate if the femoral was ligated properly. Blood flow was compared with the non-operated leg by a laser Doppler imager. […] The ischemic limb is seen as the limb on left side in the laser Doppler images.
In FIG. 12, the white areas indicate normal perfusion with normal blood circulation and black areas indicate no blood flow in the ischemic left hind limb. […] Dark shaded areas within the white areas located at the distal ends of the limbs indicate extremely good blood flow.
The blood flow of the ischemic hind limb is expressed as the ratio between the perfusion of the ischemic limb and the uninjured limb in FIG. 13.

[6] = system: nude mouse ear wound; test: Ear wound neovascularization model; format: in vivo; conditions: matrigel containing #237 (180 μg) daily for 5 days, 2.25 mm punch, vs plain matrigel
Protocol: Microvascular in-growth into damaged tissue is an essential component of the normal healing process. In fact, wound therapy is often aimed at promoting neovascularization. The model consists of wounding the dorsal aspect of the ear of a nude mouse. A circular punch was used to create a standardized wound on a nude mouse ear. Constant diameter of wound is given by the size of the punch (2.25 mm), and the ears were treated daily with plain matrigel (FIG. 8A) or matrigel containing peptide #237 (180 μg) (FIG. 8B) for 5 days. […] In order to evaluate the wound neovascularization, the mice were inoculated by dextran-FITC which specifically labeled the endothelial cells, immediately after anesthetizing them.

[7] = system: mouse corneas; test: Corneal micropocket assay with VEGF pellet; format: in vivo; conditions: pellet 160 ng VEGF 165 + 1.3 ug #237 vs VEGF pellet alone, 5 days
Protocol: Vigorous vessel in-growth from the limbus at 5 days was recorded as a positive response.
In order to evaluate the modulating effect of peptide #237 on the angiogenesis process, a corneal micropocket assay was performed. Two kinds of pellets were created, both containing 160 ng carrier-free recombinant human VEGF 165 (R&D Systems, Minneapolis, Minn.), one of which contains 1.3 ug of #237 peptide. The pellets were implanted into micropockets created in the cornea of two groups of anesthetized mice (n=4). Through the use of standardized slow-release pellets, a predictable angiogenic response is generated over the course of 5 days and then quantified. The area of neovascularization was calculated as vessel area, which is calculated as the product of vessel length measured from the limbus and clock hours around the cornea, using the following equation: vessel area (mm^2)=[clock hours×vessel length (mm)×0.2 mm]. […] The in vivo experiment confirms that the peptide stimulates cell proliferation, and is therefore a good candidate to induce angiogenesis.

[8] = system: calvaria critical size defect; test: Calvaria critical size defect bone repair experiment; format: in vivo, rat; conditions: local treatment 28 days, 100 μg/mice/5 days, 5-mm defect, vs saline
Protocol: In this study, the inventors examined the ability of peptide #237 to enhance repair of a critical size defect in a rat calvaria critical size defect experiment. Critical size calvarial defects (5-mm diameter) were created in rats and locally treated with saline (control) or peptide #237 for 28 days (100 μg/mice/5 days). After 28 days, analysis of bone regeneration was determined by soft x-ray.

[9] = system: Primary cortical neuronal cells; test: Neurite outgrowth in primary cortical neuronal cells; format: cell-based; conditions: 0.25 μg/μL, 2 days, compared to scrambled peptide
Protocol: Primary cortical neuronal cells (2×10^4 per well) were plated on poly-L-lysine coated 24 well dishes and treated with either scrambled #237 or peptide #237 (0.25 μg/μL). Cells were then cultured for 2 days.
Neurite outgrowth was evaluated by counting the number of neurites extended from the same number of cells and at the same area.
Peptide 237 increases neurite outgrowth in terminally differentiated cortical neurons. The number of neurite arborizations in these postmitotic cells was estimated using light microscopy by manually counting the number of projections in a given field containing approximately equivalent number of cells. Quantification of neurite outgrowth was also performed by fluorescent staining with a neuron-specific marker (i.e., neurofilament) followed by automated, computational analysis (data not shown).

For “Ala-5: peptide #237 with the arginine at position 5 replaced by alanine (DRVQAQTTTVVA)”, the “ability of endothelial cells to bind VEGF, alanine substituted #237 peptides” value ([1]; compared to the original #237) was “increased by more than twice”.

In the case of DRVQRQ [#237A], the “VEGF binding to cells (endothelial cells) with #237 fragments” value (from here on “VEGF binding to cells”) ([1]; I125-VEGF 12 ng/ml, 3 h on ice) is reported as “abolished; also recorded: not crucial to enhance VEGF binding”.

With DRVQRQTTTVVA [Peptide #237] the “increase in I125-VEGF binding to melanoma cells” value ([2]; peptide 720 μg/ml, 10000 cells) was “more than 25 times”, the “endothelial cells relative to VEGF alone” value ([3]; 180 ug #237 added to VEGF in Matrigel, day 6) was “six times more” and the “endothelial cells among matrigel liberated cells (FACS, CD31)” value [3] was 0.42%. The wound area [4] was “significantly smaller”, the limb perfusion ([5]; intraperitoneal immediately following femoral artery occlusion, within three to six days) was “significantly improves limb perfusion” and the “increase perfusion compared to saline-treated mice” value ([5]; ratio ischemic/uninjured limb, on average) was 30-40%. The “increase in I125-VEGF binding to endothelial cells” value ([1]; peptide 720 μg/ml, I125-VEGF 12 ng/ml, 10000 cells, 3 h on ice) was “more than 25 times”, the “neovascularization around the ear wound site” value [6] was “significantly increased” and the “increase in vessel density versus control pellet” value [7] was 53%. The “bone regeneration (soft x-ray)” value [8] was “completely sealed and covered the aperture” and the neurite outgrowth [9] was “dramatically induces branched and longer neurites”.

In the case of TTTVVA [#237B], the “VEGF binding to melanoma cells with #237 fragments” value ([2]; 100 μg/ml of each peptide) is reported as “better binding” and the “VEGF binding to cells” value ([1]; I125-VEGF 12 ng/ml, 3 h on ice) is reported as “partially increases; also recorded: partial increase”.

VEGF [reference compound] was tested, and the “endothelial cells among matrigel liberated cells (FACS, CD31)” value [3] was 0.07%.

For VQRQTTTV [#237C], the “VEGF binding to cells” value ([1]; I125-VEGF 12 ng/ml, 3 h on ice) was “abolished; also recorded: essentially eliminated”.
